Results taken from patent US11766468B2, “Method of treating prostate cancer with GnRH antagonist” (priority 2012, dated 2023).
Where “and” joins values, the source holds several entries; their conditions need not be identical. Identical values can stand only once. Marks after values point to notes of the source that are not given here. Square brackets hold non-standard residues; d marks the D form. Peptide text beside a SMILES is read from it. * marks the point of attachment. dPhe(4-NHCONH2) = NC(=O)Nc1ccc(C[C@@H](N)C(=O)O)cc1; Dihydroorotyl(S) = O=C1C[C@@H](C(=O)*)NC(=O)N1; dPhe(4-Cl) = N[C@H](Cc1ccc(Cl)cc1)C(=O)O; Phe(4-NH2) = Nc1ccc(C[C@H](N)C(=O)O)cc1; d2Nal = N[C@H](Cc1ccc2ccccc2c1)C(=O)O; Lys(iPr) = CC(C)NCCCC[C@H](N)C(=O)O; d3Pal = N[C@H](Cc1cccnc1)C(=O)O

Assay: CS21 safety: treatment-emergent adverse events (MedDRA SOC/PT), crude incidence, also by subgroup
Format: in vivo
Method: The safety variables for this study were assessed on the following: the frequency and severity of adverse events (AEs); the presence of clinically significant changes in laboratory parameters (clinical chemistry, hematology and urinalysis); changes in electrocardiograms (ECGs) and vital signs; changes detected by physical examination; and body weight.
An AE was therefore any unfavorable or unintended sign (including an abnormal laboratory finding), symptom or disease temporally associated with the use of the product, whether or not related to the IMP.
An adverse drug reaction (ADR) was defined as an AE evaluated by the investigator as being probably or possibly related to treatment with the IMP.
AEs were graded according to the National Cancer Institute (NCI) Common Terminology Criteria for Adverse Events (CTCAE). In accordance with the CTCAE criteria, AEs were rated on a five-point scale corresponding to mild, moderate, severe, life-threatening or disabling and death. For those AEs not described in the CTCAE, a separate five-point rating scale was used for rating of the intensity of AEs as follows below:
Safety parameters were evaluated for all patients included in the ITT analysis set, comprising all 610 randomized patients who received at least one dose of study medication. All safety tables include four columns: the three treatment groups described separately, and the pooled degarelix group.
Adverse events were regarded as ‘treatment-emergent’ if they occurred in the time interval from initial dosing to end-of-study. Adverse events were considered ‘pre-treatment’ if they occurred between screening and the initial injections of IMP. As described above, all AEs were classified according to MedDRA (version 10.0) system organ class (SOC), sorted alphabetically, and by preferred term (PT), in decreasing frequency of occurrence. Treatment-emergent AEs were expressed in terms of intensity (using NCI CTCAE) and relationship to study drug.
Using the results from the summary of clinical efficacy (SCE) and summary of clinical safety (SCS) findings, different patient subgroups were analyzed. Subgroup distinguishers included race (white, black, and other), age (<65 years, […], and >75 years), weight (<70 kg, ≥70−<90 kg, and ≥90 kg), body mass index (BMI) (≤20, >20 to 30, and >30 kg/m^2)), region (North-America, Western Europe, Central and Eastern Europe and Other), and stage of prostate cancer (e.g., localized, locally advanced, and metastatic).

[1] = degarelix 240/160 mg, listed as degarelix
[2] = degarelix Total (pooled), leuprolide 7.5 mg
[3] = degarelix Total (pooled), leuprolide 7.5 mg, listed as degarelix
[4] = degarelix pooled, LUPRON DEPOT 7.5 mg
[5] = degarelix pooled, LUPRON DEPOT 7.5 mg, listed as degarelix
[6] = pooled degarelix, leuprolide 7.5 mg

SMILES: CC(=O)N[C@H](Cc1ccc2ccccc2c1)C(=O)N[C@H](Cc1ccc(Cl)cc1)C(=O)N[C@H](Cc1cccnc1)C(=O)N[C@@H](CO)C(=O)N[C@@H](Cc1ccc(NC(=O)[C@@H]2CC(=O)NC(=O)N2)cc1)C(=O)N[C@H](Cc1ccc(NC(N)=O)cc1)C(=O)N[C@@H](CC(C)C)C(=O)N[C@@H](CCCCNC(C)C)C(=O)N1CCC[C@H]1C(=O)N[C@H](C)C(N)=O [Degarelix, D-Alaninamide, N-acetyl-3-(2-naphthalenyl)-D-alanyl-4-chloro-D-phenylalanyl-3-(3-pyridinyl)-D-alanyl-L-seryl-4-[[[(4S)-hexahydro-2,6-dioxo-4-pyrimidinyl]carbonyl]amino]-L phenylalanyl-4-[(aminocarbonyl)amino]-D-phenylalanyl-L leucyl-N6-(1-methylethyl)-L-lysyl-L-prolyl] (Ac-[d2Nal][dPhe(4-Cl)][d3Pal]S[Phe(4-NH2)](Dihydroorotyl(S))[dPhe(4-NHCONH2)]L[Lys(iPr)]P[dA]-NH2)
- AEs leading to discontinuation, % of patients (degarelix 240/160 mg): 9%
- AEs leading to discontinuation, E events (degarelix 240/160 mg): 19
- AEs leading to discontinuation, N patients (degarelix 240/160 mg): 19
- Alanine aminotransferase increased, % of patients (degarelix 240/160 mg): ( 8%)
- All AEs, E = number of adverse events (degarelix 240/160 mg): 941
- All AEs, N = number of patients (degarelix 240/160 mg): 167
- Arthralgia, % of patients (degarelix 240/160 mg): ( 3%)
- Aspartate aminotransferase increased, % of patients (degarelix 240/160 mg): ( 5%)
- Back pain, % of patients (degarelix 240/160 mg): ( 6%)
- Blood & lymphatic system disorders, % of patients (degarelix 240/160 mg): ( 5%)
- Cardiac disorders, % of patients (degarelix 240/160 mg): ( 9%)
- Chills, % of patients (degarelix 240/160 mg): ( 3%)
- Constipation, % of patients (degarelix 240/160 mg): ( 3%)
- Deaths (Grade 5), % of patients (degarelix 240/160 mg): 2%
- Deaths (Grade 5), E events (degarelix 240/160 mg): 6
- Deaths (Grade 5), N patients (degarelix 240/160 mg): 5
- Ear & labyrinth disorders, % of patients (degarelix 240/160 mg): ( 1%)
- Endocrine disorders, % of patients (degarelix 240/160 mg): (<1%)
- Eye disorders, % of patients (degarelix 240/160 mg): ( 2%)
- Fatigue, % of patients (degarelix 240/160 mg): ( 6%)
- Gastrointestinal disorders, % of patients (degarelix 240/160 mg): (16%)
- General disorders & administration site conditions, % of patients (degarelix 240/160 mg): (50%)
- Hepatobiliary disorders, % of patients (degarelix 240/160 mg): (<1%)
- Hot flush, % of patients (degarelix 240/160 mg): (26%)
- Hypercholesterolaemia, % of patients (degarelix 240/160 mg): ( 6%)
- Hypertension, % of patients (degarelix 240/160 mg): ( 7%)
- Immune system disorders, % of patients (degarelix 240/160 mg): (<1%)
- Infections & infestations, % of patients (degarelix 240/160 mg): (19%)
- Injection site erythema, % of patients (degarelix 240/160 mg): (24%)
- Injection site induration, % of patients (degarelix 240/160 mg): ( 5%)
- Injection site nodule, % of patients (degarelix 240/160 mg): ( 6%)
- Injection site pain, % of patients (degarelix 240/160 mg): (30%)
- Injection site swelling, % of patients (degarelix 240/160 mg): ( 7%)
- Injury, poisoning & procedural complications, % of patients (degarelix 240/160 mg): ( 5%)
- Investigations, % of patients (degarelix 240/160 mg): (29%)
- Metabolism & nutrition disorders, % of patients (degarelix 240/160 mg): (13%)
- Musculoskeletal & connective tissue disorders, % of patients (degarelix 240/160 mg): (18%)
- Nausea, % of patients (degarelix 240/160 mg): ( 5%)
- Neoplasms benign, malignant & unspecified, % of patients (degarelix 240/160 mg): ( 6%)
- Nervous system disorders, % of patients (degarelix 240/160 mg): (13%)
- Psychiatric disorders, % of patients (degarelix 240/160 mg): ( 8%)
- Renal & urinary disorders, % of patients (degarelix 240/160 mg): (13%)
- Reproductive system & breast disorders, % of patients (degarelix 240/160 mg): ( 6%)
- Respiratory, thoracic & mediastinal disorders, % of patients (degarelix 240/160 mg): ( 8%)
- Serious AEs, % of patients (degarelix 240/160 mg): 12%
- Serious AEs, E events (degarelix 240/160 mg): 41
- Serious AEs, N patients (degarelix 240/160 mg): 24
- Skin & subcutaneous tissue disorders, % of patients (degarelix 240/160 mg): (10%)
- Surgical & medical procedures, % of patients (degarelix 240/160 mg): (<1%)
- Urinary tract infection, % of patients (degarelix 240/160 mg): ( 1%)
- Vascular disorders, % of patients (degarelix 240/160 mg): (32%)
- Weight increased, % of patients (degarelix 240/160 mg): (11%)
- Hot flush, % of patients [1]: 26%
- Treatment-emergent adverse events (all AEs), % of patients [1]: 83%
- Injection site erythema, % of patients (degarelix Total (pooled)): (21%)
- Injection site induration, % of patients (degarelix Total (pooled)): ( 5%)
- Injection site nodule, % of patients (degarelix Total (pooled)): ( 5%)
- Injection site swelling, % of patients (degarelix Total (pooled)): ( 7%)
- Surgical & medical procedures, % of patients (degarelix Total (pooled)): (<1%)
- ADRs, % of patients [2]: 58%
- ADRs, E events [2]: 922
- ADRs, N patients [2]: 238
- AEs leading to discontinuation, % of patients [2]: 8%
- AEs leading to discontinuation, E events [2]: 34
- AEs leading to discontinuation, N patients [2]: 34
- Alanine aminotransferase increased, % of patients [2]: ( 9%)
- All AEs, E = number of adverse events [2]: 1878
- All AEs, N = number of patients [2]: 330
- Aspartate aminotransferase increased, % of patients [2]: ( 5%)
- Back pain, % of patients [2]: ( 6%)
- Cardiac disorders, % of patients [2]: ( 9%)
- Chills, % of patients [2]: ( 4%)
- Constipation, % of patients [2]: ( 4%)
- Deaths (Grade 5), % of patients [2]: 2%
- Deaths (Grade 5), E events [2]: 11
- Deaths (Grade 5), N patients [2]: 10
- Ear & labyrinth disorders, % of patients [2]: ( 2%)
- Endocrine disorders, % of patients [2]: ( 1%)
- Eye disorders, % of patients [2]: ( 2%)
- Fatigue, % of patients [2]: ( 5%)
- Gastrointestinal disorders, % of patients [2]: (17%)
- General disorders & administration site conditions, % of patients [2]: (47%)
- Hepatobiliary disorders, % of patients [2]: (<1%)
- Hot flush, % of patients [2]: (26%)
- Hypercholesterolaemia, % of patients [2]: ( 5%)
- Hypertension, % of patients [2]: ( 6%)
- Immune system disorders, % of patients [2]: (<1%)
- Infections & infestations, % of patients [2]: (20%)
- Injection site pain, % of patients [2]: (29%)
- Injury, poisoning & procedural complications, % of patients [2]: ( 5%)
- Metabolism & nutrition disorders, % of patients [2]: (10%)
- Nausea, % of patients [2]: ( 5%)
- Neoplasms benign, malignant & unspecified, % of patients [2]: ( 5%)
- Nervous system disorders, % of patients [2]: (12%)
- Psychiatric disorders, % of patients [2]: ( 8%)
- Renal & urinary disorders, % of patients [2]: (13%)
- Respiratory, thoracic & mediastinal disorders, % of patients [2]: (10%)
- Serious AEs, % of patients [2]: 11%
- Serious AEs, E events [2]: 67
- Serious AEs, N patients [2]: 45
- Skin & subcutaneous tissue disorders, % of patients [2]: (10%)
- Vascular disorders, % of patients [2]: (33%)
- Weight increased, % of patients [2]: (10%)
- Arthralgia, % of patients [3]: 4% and 4.2%
- Back pain, % of patients [3]: 6%
- Cardiac disorders, % of patients [3]: 9%
- Gastrointestinal disorders, % of patients [3]: 17%
- General disorders & administration site conditions, % of patients [3]: 47%
- Infections & infestations, % of patients [3]: 20%
- Injection site pain, % of patients [3]: 29%
- Investigations, % of patients [3]: 27%
- Musculoskeletal & connective tissue disorders, % of patients [3]: 17%
- Renal & urinary disorders, % of patients [3]: 13%
- Reproductive system & breast disorders, % of patients [3]: 5%
- Treatment-emergent adverse events (all AEs), % of patients [3]: 81%
- Urinary tract infection, % of patients [3]: 3%
- Vascular disorders, % of patients [3]: 33%
- Myocardial Infarction (PT), % of patients (degarelix combined, LUPRON DEPOT 7.5 mg): 0.5%
- Deep vein thrombosis, N patients (degarelix pooled): 0
- Libido decreased, N patients (degarelix pooled): 0
- Cardiac murmur, % of patients [4]: 0%
- Chest pain, % of patients [4]: (<1%)*
- Cystitis noninfective, % of patients [4]: 0%
- Deep vein thrombosis, % of patients [4]: 0%
- Erectile dysfunction, % of patients [4]: (1%)*
- Libido decreased, % of patients [4]: 0%
- Musculoskeletal stiffness, % of patients [4]: 0%
- Myocardial ischaemia, % of patients [4]: (<1%)*
- Oedema peripheral, % of patients [4]: (2%)*
- Urinary retention, % of patients [4]: (1%)*
- Chest pain, % of patients [5]: 0.5%
- Erectile dysfunction, % of patients [5]: 1% and 1.5%
- Oedema peripheral, % of patients [5]: 2%
- Urinary retention, % of patients [5]: 1.2%
- discontinuations due to injection site adverse events (degarelix s.c., 12 months): < 1%
- immediate onset hypersensitivity reactions (in vivo): no immediate onset hypersensitivity reactions
- ADRs: general disorders and administration site conditions including injection-site reactions, % of patients (pooled degarelix): 42%
- Gynaecomastia, prostatitis or testicular atrophy (each), % of patients (pooled degarelix): 2%
- Hyperhidrosis, % of patients (pooled degarelix): < 1%
- Night sweats, % of patients (pooled degarelix): 1%
- Pelvic pain, % of patients (pooled degarelix): < 1%
- Sweating disorders, % of patients (pooled degarelix): approximately 1%
- Testicular pain, % of patients (pooled degarelix): < 1%
- incidence of all other injection site preferred terms (pooled degarelix): ≤ 0.5 per 100 injections
- incidence of injection site erythema (pooled degarelix): 1.9 per 100 injections
- incidence of injection site pain (pooled degarelix): 2.9 per 100 injections
- incidence of treatment-emergent injection site reactions (pooled degarelix): 4.4 per 100 injections
- injection site reactions which led to withdrawal, % of patients (pooled degarelix): 1.2%
- patients with SAEs that led to withdrawal, number (pooled degarelix): 17
- Hot flushes reported as ADR, % of patients [6]: 25%
- SAEs: cardiac disorders, % of patients [6]: 2%
- SAEs: renal and urinary disorders, % of patients [6]: 2%
